From PubChem BioAssay (NCI)
“And” between values parts separate entries of the source, which are not always exact repeats. Identical values can stand only once.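 Five concentrations, 48 hours, 96-well plates. GI50 marks 50% less growth. TGI is the concentration that stops growth completely.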

How the values were obtained:
Assay in all cases: growth of human tumour cells (NCI), 48 h
NCI-H226 lung = tested on: NCI-H226 lung
HCT-116 colon = tested on: HCT-116 colon
SNB-19 CNS = tested on: SNB-19 CNS
SR leukemia = tested on: SR leukemia
OVCAR-3 ovarian = tested on: OVCAR-3 ovarian
SK-OV-3 ovarian = tested on: SK-OV-3 ovarian
RPMI-8226 leukemia = tested on: RPMI-8226 leukemia
SN12C renal = tested on: SN12C renal
TK-10 renal = tested on: TK-10 renal
HT29 colon = tested on: HT29 colon

Structure (SMILES)	GI50 (NCI-H226 lung)	TGI (NCI-H226 lung)	GI50 (HCT-116 colon)	TGI (HCT-116 colon)	GI50 (SNB-19 CNS)	TGI (SNB-19 CNS)	GI50 (SR leukemia)	TGI (SR leukemia)	GI50 (OVCAR-3 ovarian)	TGI (OVCAR-3 ovarian)	GI50 (SK-OV-3 ovarian)	TGI (SK-OV-3 ovarian)	GI50 (RPMI-8226 leukemia)	TGI (RPMI-8226 leukemia)	GI50 (SN12C renal)	TGI (SN12C renal)	TGI (TK-10 renal)	TGI (HT29 colon)	GI50 (TK-10 renal)	GI50 (HT29 colon)
CC(C)COc1nc2c(c(=O)n(C)c(=O)n2C)n1C	> 100 µM	> 100 µM	> 100 µM	> 100 µM	> 100 µM	> 100 µM	> 100 µM	> 100 µM	> 100 µM	> 100 µM	> 100 µM	> 100 µM	> 100 µM	> 100 µM	> 100 µM	> 100 µM				
O=C1C2C3CC(C4C5C=CC(C5)C34)C2C2C3CC(C12)C1C2C=CC(C2)C31 (stereo unspecified)		> 100 µM		> 100 µM		> 100 µM		> 100 µM		> 100 µM		> 100 µM				> 100 µM	> 100 µM	> 100 µM		
Cc1cn(Cc2ccc(C34CC5CC(CC(C5)C3)C4)c(O)c2)c(=O)[nH]c1=O	15.4 µM	29.9 µM	10.7 µM	22.5 µM	13.9 µM	31.1 µM	3.16 µM	13.5 µM	4.04 µM	16.3 µM	19.2 µM	44.3 µM	1.79 µM	21 µM	12.3 µM	25.4 µM	32.2 µM	26.5 µM	14.7 µM	11.1 µM
CSc1nc2c(c(=O)n1C)CN(C1CCCCC1)C(=O)C(c1ccccc1)N2 (stereo unspecified)	77.3 µM	> 100 µM	36.6 µM	> 100 µM	36.7 µM	> 100 µM	6.38 µM	> 100 µM	20.1 µM	82 µM	76.8 µM	> 100 µM	11.3 µM	> 100 µM	36 µM	> 100 µM	> 100 µM	> 100 µM	31.4 µM	33.3 µM
O=C1C=CC(=O)c2c(O)c3c(c(O)c21)C[C@H](O)[C@H](O)[C@@H]3O		36.7 µM		1.73 µM		26.9 µM		> 100 µM		3.88 µM		33 µM		4.85 µM		3.82 µM	3.27 µM	5.83 µM		
CCOP(=O)(OCC)C(C(=O)OC)C(=O)C(=O)Nc1cccc(O)c1 (stereo unspecified)		> 100 µM		> 100 µM		> 100 µM		> 100 µM		> 100 µM		> 100 µM				> 100 µM	> 100 µM	> 100 µM		
CO[C@H]1CC(O[C@@H]2/C(C)=C/C[C@@H]3C[C@@H](C[C@]4(CC[C@H](C)[C@@H](C5CCCCC5)O4)O3)OC(=O)[C@@H]3C=C(C)/C(=N/O)[C@H]4OC/C(=C\C=C\[C@@H]2C)[C@]43O)O[C@@H](C)C1O (stereo partly specified)	0.73 µM	1.43 µM	0.704 µM	1.4 µM	1.66 µM	9.01 µM	1.11 µM	2.79 µM	0.864 µM	1.62 µM	1.17 µM	2.86 µM	0.944 µM	2.72 µM	0.889 µM	1.85 µM	2.71 µM	2.05 µM	1.13 µM	0.966 µM
COc1ccc(OC)c(/C=N/N=C(\N)NO)c1		> 100 µM		> 100 µM		> 100 µM		> 100 µM		> 100 µM		> 100 µM				> 100 µM	56 µM	> 100 µM		
CN1CCN(Cc2ccc(NC(=O)c3cncc(C#Cc4cnc(N)c5cccnc45)c3)cc2C(F)(F)F)CC1	0.191 µM	> 50 µM	0.224 µM	6.6 µM	2.05 µM	> 50 µM	0.293 µM	> 50 µM	0.589 µM	> 50 µM	0.203 µM	> 50 µM	0.603 µM	> 50 µM	0.311 µM	> 50 µM	> 50 µM	> 50 µM	1.33 µM	0.157 µM
NS(=O)(=O)c1cc(C(=O)O)c(O)c2ccccc12		> 100 µM		> 100 µM		> 100 µM		> 100 µM		> 100 µM		> 100 µM		> 100 µM		> 100 µM	> 100 µM	> 100 µM		
O=C(/C=C/c1cccc([N+](=O)[O-])c1)c1ccc([N+](=O)[O-])cc1		> 100 µM		> 100 µM		> 100 µM		> 100 µM		> 100 µM		> 100 µM				> 100 µM	> 100 µM	> 100 µM		
COC(=O)[C@@H]1Cc2c([nH]c3ccccc23)[C@H](c2ccccc2)N1		> 100 µM		> 100 µM		> 100 µM		> 100 µM		98.7 µM		89.7 µM				81.5 µM	> 100 µM	> 100 µM		
Cn1cc(-c2cnn3c(N)c(Br)c(C4CCCNC4)nc23)cn1 (stereo unspecified)	13.9 µM	> 96 µM	6.04 µM	24.6 µM	18.4 µM	> 100 µM	0.326 µM	16.9 µM	16 µM	> 88.9 µM	4.06 µM	66.8 µM	4.7 µM	27.2 µM	3.86 µM	50.6 µM	> 83 µM	> 73 µM	3.69 µM	4.19 µM
COC1(OC)C2(Cl)C(Cl)=C(Cl)C1(Cl)C1C2C2CC1(C(=O)O)c1ccccc12 (stereo unspecified)		52.5 µM		33.8 µM		> 100 µM		42.2 µM		33.4 µM		91.3 µM		54.5 µM		40.9 µM	70 µM	76.3 µM		
COc1ccc([C@@]23Oc4cc(OC)cc(OC)c4[C@]2(O)[C@H](O)[C@H](C(N)=O)[C@H]3c2ccccc2)cc1		0.0935 µM and < 0.0283 µM		0.488 µM		0.0999 µM	0.01 µM		< 0.0129 µM	0.101 µM and 0.284 µM					< 0.0113 µM	0.0751 µM	0.101 µM and 0.0367 µM	0.0659 µM and 0.0515 µM	0.0278 µM	
O=C(Nc1ccc(Cl)cc1Cl)OC(Cn1cncn1)c1ccc(Cl)cc1Cl (stereo unspecified)		39 µM		27.1 µM		30.8 µM		> 100 µM		29.3 µM		34.7 µM		> 100 µM		30.7 µM		28.5 µM		
